Experimental data as given in patent publication US20170189496A1, “USE OF PHOSPHORYLATION PATHWAY-RELATED FACTOR IN REGULATING FUNCTION OF REGULATORY T CELL” (Institut Pasteur of Shanghai, Chinese Academy of Sciences, priority 2012, published 2017).

Tests used:
[1] = tested on: SZ4.03 lymphocyte cell line that highly expresses FOXP3; test: Inflammatory cytokine induction of PIM1 expression in SZ4.03 cells (immunoblot); type: cell-based; conditions: IL-6 20 ng/ml or IL-4 30 ng/ml; for PIM1 expression: 0 h, 1 h, 2 h, 4 h; for FOXP3 expression levels: 0-4 h
Protocol: SZ4.03 cells were treated with IL-6 (20 ng/ml) or IL-4 (30 ng/ml), respectively. After 0 h, 1 h, 2 h, and 4 h, cells were collected and lysed by boiling directly in SDS-Loading Buffer. Samples were then analyzed by immunoblot.
SZ4.03 cells (lymphocyte cell line that highly expresses FOXP3, kept in the present laboratory; also can be routinely obtained by one skilled in the art according to methods described in Reference 7) were cultured in 1640 culture medium containing 10% FBS, 100 units/ml penicillin-streptomycin, 100 units ml non-essential amino acids, and 100 units/ml sodium pyruvate, at 37° C. under 5% CO2.
After protein samples were subjected to SDS-PAGE, transferred to nitrocellulose membrane, sealed in TBST with 5% skim milk for 1 h, primary antibody was added and incubated for 1 h, then HRP-conjugated secondary antibody was added and incubated for 1 h, and results shown by exposure with ECL substrates.
SZ4.03 cells were treated with IL-6 (20 ng/ml) or IL-4 (30 ng/ml), respectively, for 0 h, 1 h, 2 h, and 4 h. Cells were collected and lysed by boiling directly in SDS sample buffer, and then samples were analyzed by immunoblot (primary antibodies are PIM1 antibody and FOXP3 antibody) (results shown in FIG. 2).

[2] = tested on: in vitro expanded natural regulatory T cells (nTreg); test: PIM1 protein expression in in vitro expanded nTreg under inflammatory cytokine stimulation; type: cell-based
[3] = tested on: Jurkat cells stably expressing HA-FOXP3; test: FOXP3 protein degradation induced by PMA/LPS in Jurkat cells stably expressing HA-FOXP3 (immunoblot); type: cell-based; conditions: PMA 25 ng/ml + LPS 1 ng/ml, 24 h; kaempferol 50 μM, PIM1 inhibitor 100 nM, PI3K inhibitor 10 μg/ml; DMSO control
Protocol: HA-FOXP3-Jurkat stable expression cells were treated with PMA (25 ng/ml) and LPS (1 ng/ml). 50 μM kaempferol, 100 nM PIM1 inhibitors (specifically of 4-[3-(4-chlorophenyl)-2,1-benzisoxazol-5-yl]-2-pyrimidinamine), and 10 μg/ml PI3K inhibitor (LY294002) were added, and DMSO as a control. Cells were collected 24 h later. The levels of FOXP3 and GAPDH were detected directly by immunoblot.
Human embryonic kidney cell line HEK293 was co-transfected with FUGW-HA-FOXP3, del 8.9 and VSV-G. Cell culture supernatants were collected 48 h and 72 h after transfection. Viruses were purified by ultracentrifugation and used to infect Jurkat E6.1 to ultimately obtain Jurkat cell lines stably expressing HA-FOXP3.
Protein samples were subjected to SDS-PAGE, and then transferred to nitrocellulose membrane, which was then sealed in TBST containing 5% nonfat dry milk or 3% bovine serum albumin for 1 h. Primary antibody was added and incubated for 1 h and then HRP-conjugated secondary antibody was added and incubated for 1 h, and results shown by exposure with ECL substrates.
Jurkat cells stably expressing HA-FOXP3 were treated with PMA (25 ng/ml) and LPS (1 ng/ml). Each sample was added 50 μM kaempferol, 100 nM PIM1 inhibitor (i.e., 4-[3-(4-chlorophenyl)-2,1-benzisoxazol-5-yl]-2-pyrimidinamine), and 10 μg/ml PI3K inhibitor (LY294002). DMSO serves as a control. Cells were collected after 24 h.

[4] = tested on: human CD4+ CD25+ CD127low natural Treg (nTreg); test: Flow cytometry of expanded nTreg treated with PIM1 inhibitor; type: cell-based; conditions: 100 nM
Protocol: After removal of Beads, DMSO or PIM1 inhibitor (100 nM) was added and treated for 24 h, followed by APC-FOXP3 and PE-CD25 antibody staining for flow cytometry analysis.
After human CD4+ CD25+ CD127^low natural Treg (nTreg) were sorted by BD FACS Aria II flow sorter, and expanded through Bead-CD3/CD28 and IL-2 (500 U/ml). DMSO or PIM1 inhibitor (4-[3-(4-chlorophenyl)-2,1-benzisoxazol-5-yl]-2-pyrimidinamine, 100 nM) was added and treated for 24 h. and the cells were stained with APC-FOXP3 and PE-CD25 antibody for flow cytometry analysis (results shown in FIG. 5A). The expanded nTreg were rested for 24 h. DMSO or PIM1 inhibitor (100 nM) was then added and treated for 48 h, followed by staining with APC-FOXP3 and PE-CD25 antibody for flow cytometry analysis (results shown in FIG. 5B).

nTreg cells = test: nTreg expansion, FACS detection of FOXP3 and CTLA4; type: cell-based, human; conditions: 100 nM; IL-2 500 U/ml, CD3/CD28 dynabeads 3:1; two weeks; vs control group
Protocol: 500 U/ml of IL-2 was added to 2×10^5 nTreg cells. nTreg cells were expanded using CD3/CD28 T cell dynabeads and cells at 3:1 ratio. After two weeks, part of expanded nTreg cells were collected for FACS detection. Dynabeads were removed from the remaining cells. After 48 h of rest, FOXP3 and CTLA4 cells were collected again by flow cytometry. The working concentrations of Rapamycin and PIM1 inhibitors are both 100 nM.
500 U/ml of IL-2 was added to 2×10^5 nTreg cells. nTreg cells were expanded at a 3:1 ratio of CD3/CD28 T cell dynabeads and cells. After two weeks, part of the expanded nTreg cells were collected for FACS detection. Dynabeads were removed from the remaining cells and rested for 48 h. Cells were collected again for FACS detection of FOXP3 and CTLA4.

[5] = tested on: nTreg mixed with CFSE-labeled human PBMC; test: nTreg immunosuppressive activity: proliferation of CFSE-labeled PBMC; type: cell-based; conditions: Treg:PBMC 1:2 or 1:4; Bead-CD3/CD28; 5 days; vs DMSO-treated group
Protocol: The expanded nTreg were mixed with human CFSE-labeled PBMC (2×10^5 cells/well) in U-shaped wells of 96-well plate at corresponding proportion. 5000 T cell dynabeads conjugated with CD3/CD28 antibody were added. Cell proliferation levels were detected after two groups of cells treated with DMSO and PIM1 inhibitors, respectively, were incubated for five days.
Regulatory T cells were obtained from human peripheral blood mononuclear cells (purchased from Shanghai Blood Center) by antibody labeling and magnetic bead sorting. As mentioned above, after labeling effector T cells with 1 μM CFSE (Invitrogen), regulatory T cells and effector T cells were cultured for 80 h. Flow cytometry was used to detect fluorescence intensity changes in effector T cells, their proliferation status was analyzed.
The expanded nTreg were mixed with CFSE-labeled human PBMC (2×10^5 cells/well) at the corresponding ratio (i.e., PBMC only, Treg:PBMC=1:2 or 1:4, or Treg only) in 96-well U-shaped well. 5000 Bead-CD3/CD28 were added to each well. Two groups of cells were treated, respectively, with DMSO and PIM1 inhibitors, cultured for 5 days, followed by detection of cell proliferation levels (results shown in FIG. 6).

PIM1 [6] = biological target: T1, PIM1 (Homo sapiens, UniProt P11309); test: shPIM1 knockdown in SZ4.03 cells, mRNA of FOXP3 target genes by quantitative PCR; type: cell-based; design: SZ4.03 cells that highly expresses FOXP3 were infected with viral vectors carrying the negative control shRNA (shCK) and PIM1 shRNA (shPIM1); endogenous in cells; host or cells: SZ4.03 lymphocyte cell line; conditions: vs control shCK
T1 sequence (P11309 whole entry): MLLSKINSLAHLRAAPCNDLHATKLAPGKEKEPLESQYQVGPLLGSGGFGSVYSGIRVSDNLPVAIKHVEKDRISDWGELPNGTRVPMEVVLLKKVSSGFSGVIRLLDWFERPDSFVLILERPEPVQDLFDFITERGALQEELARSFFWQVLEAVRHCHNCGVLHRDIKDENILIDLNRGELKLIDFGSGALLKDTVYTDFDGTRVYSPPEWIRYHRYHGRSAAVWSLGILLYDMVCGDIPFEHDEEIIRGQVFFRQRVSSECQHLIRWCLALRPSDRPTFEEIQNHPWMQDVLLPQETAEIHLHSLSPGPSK
Protocol: After 4 h, total RNA was extracted and converted to cDNA. PIM1 mRNA expression levels were then analyzed by quantitative PCR.
(§1) shPIM1 primer sequences were designed as follows:
After annealing, the synthesized shRNA primer sequences were ligated into lentiviral shRNA expression vector pLKO.1 (purchased from Addgene). After mixed at a ratio of pLKO.1:dR8.9:VSVG=5:4:3, HEK 293T cells were transfected with the mixture using calcium phosphate method. Viruses were collected 48 h after transfection. After low-speed centrifugation and filtration, virus suspension was used directly to infect target cells.
SZ4.03 cells that highly expresses FOXP3 were infected with viral vectors carrying the negative control shRNA (shCK) and PIM1 shRNA (shPIM1) packaged using lentiviral packaging system, followed by puromycin (50 ng/ml) selection and DMSO or PMA/inomycin (P/I) for 4 h. Total RNA was extracted and reverse transcribed to cDNA.

PIM1 [7] = biological target: T1, PIM1; test: PIM shRNA lentivirus in primary nTreg, mRNA by quantitative PCR; type: cell-based; design: SZ4.03 cells that highly expresses FOXP3 were infected with viral vectors carrying the negative control shRNA (shCK) and PIM1 shRNA (shPIM1); endogenous in cells; conditions: primary nTreg cells; 1 week culture after lentivirus infection
Protocol: Primary nTreg cells were activated with 500 U/ml of IL-2 and CD3/CD28 T cell dynabeads and cells at 3:1 ratio for 4 h, and, respectively, infected with lentivirus encoding PIM1, PIM2, and PIM3 shRNA overnight. Continued incubation for one week, the mRNA levels of FOXP3 and its target gene CTLA4 were detected by quantitative PCR.
500 U/ml of IL-2 was added to 2×10^5 nTreg cells. Primary nTreg cells were activated at a 3:1 ratio of CD3/CD28 T cell dynabeads and cells for 4 h, followed by infection of lentiviruses encoding PIM1, PIM2, and PIM3 shRNA overnight. Cells were cultured for 1 week without removing dynabeads, and then the mRNAs level of FOXP3 and its target gene CTLA4 were detected (results shown in FIG. 12).
as §1
After annealing, the synthesized shRNA primer sequences were ligated into shRNA lentiviral expression vector pLKO.1 (purchased from Addgene). After mixed at a ratio of pLKO.1:dR8.9:VSVG=5:4:3, they were transfected into HEK 293T cells by calcium phosphate method. Viruses were collected 48 h after transfection. Virus suspensions, after low-speed centrifugation and filtration, were used directly to infect target cells.

[8] = 24 h or 48 h, vs DMSO control group

Question: What does the source list for “IL-6: inflammatory cytokine, purchased from Apotech”?
Answer: PIM1 expression [1]: gradually increases as treatment time increases; FOXP3 expression levels [1]: no significant difference; PIM1 protein expression levels [2]: rapidly up-regulate

Question: For Nc1nccc(-c2ccc3noc(-c4ccc(Cl)cc4)c3c2)n1 [PIM1 inhibitor, 4-[3-(4-chlorophenyl)-2,1-benzisoxazol-5-yl]-2-pyrimidinamine], which FOXP3 protein degradation [3] is on record?
Answer: Its FOXP3 protein degradation is “can inhibit”.

Question: What about the FOXP3 expression levels [4] of the same molecule?
Answer: The FOXP3 expression levels was “positively regulate”.

Question: And the “CD25+ FOXP3+ Treg cell levels” value [4, 8]?
Answer: The value was “significantly increase”.

Question: And the “CLTA4+ FOXP3+ Treg cell levels” value [4, 8]?
Answer: The value was “significantly increase”.

Question: And the “FOXP3+ and CTLA4+ nTreg cell expansion” value (nTreg cells)?
Answer: Its value is “promote”.

Question: And the PBMC proliferation [5]?
Answer: Its PBMC proliferation is “inhibited more”.

B1: IL-4: inflammatory cytokine, purchased from Apotech (protein, UniProt P05112 25-153, looked up)
Interleukin-4: HKCDITLQEIIKTLNSLTEQKTLCTELTVTDIFAASKNTTEKETFCRAATVLRQFYSHHEKDTRCLGATAQQFHRHKQLIRFLKRLDRNLWGLAGLNSCPVKEANQSTLENFLERLKTIMREKYSKCSS
Question: How did the PIM1 expression [1] turn out when B1 was run?
Answer: The PIM1 expression was “gradually increases as treatment time increases”.

Question: And the FOXP3 expression levels [1]?
Answer: The FOXP3 expression levels was “no significant difference”.

Question: What about the “PIM1 protein expression levels” value [2] of the same molecule?
Answer: Its value is “rapidly up-regulate”.

B2: shPIM1: PIM1 shRNA (SEQ ID NO: 3 and 4) in lentiviral vector pLKO.1 (nucleic acid)
sense: CCGGGATACTCTCTTCTTCTCATAGCTCGAGCTATGAGAAGAAGAGAGTATCTTTTT
antisense: AATTAAAAAGATACTCTCTTCTTCTCATAGCTCGAGCTATGAGAAGAAGAGAGTATC
Question: How did the “mRNA expression levels of FOXP3-negatively regulated target gene IL-2” value (PIM1 [6]) turn out when B2 was run?
Answer: The value was “reduces”.

Question: What about the “mRNA expression levels of FOXP3-positively regulated target gene CTLA4” value (PIM1 [6]) of the same molecule?
Answer: The value was “enhances”.

Question: What about the “mRNA expression levels of FOXP3-positively regulated target gene GITR” value (PIM1 [6]) of the same molecule?
Answer: Its value is “enhances”.

Question: What about the “mRNA expression levels of non-FOXP3 target gene STUB1” value (PIM1 [6]) of the same molecule?
Answer: The value was “does not affect”.

Question: And the “mRNA expression levels of PIM1” value (PIM1 [6]; DMSO or PMA/inomycin 4 h)?
Answer: The value was “significantly reduce”.

Question: What about the “mRNA levels of CTLA4” value (PIM1 [7]) of the same molecule?
Answer: Its value is “increase”.
